Laboratory results published in ChEMBL document CHEMBL5338713, “Discovery of pomalidomide-based PROTACs for selective degradation of histone deacetylase 8” (Eur J Med Chem, 2022).
The source made the active and inactive calls. The rule behind the calls is not given here.

Tests used:
Assay type in all cases: cell-based
[1] = target: T1, Histone deacetylase 8 (Homo sapiens) (UniProt Q9BY41); assay: Induction of HDAC8 degradation in human HCT-116 cells at 5 uM by Western blot analysis relative to control
T1 sequence (whole entry): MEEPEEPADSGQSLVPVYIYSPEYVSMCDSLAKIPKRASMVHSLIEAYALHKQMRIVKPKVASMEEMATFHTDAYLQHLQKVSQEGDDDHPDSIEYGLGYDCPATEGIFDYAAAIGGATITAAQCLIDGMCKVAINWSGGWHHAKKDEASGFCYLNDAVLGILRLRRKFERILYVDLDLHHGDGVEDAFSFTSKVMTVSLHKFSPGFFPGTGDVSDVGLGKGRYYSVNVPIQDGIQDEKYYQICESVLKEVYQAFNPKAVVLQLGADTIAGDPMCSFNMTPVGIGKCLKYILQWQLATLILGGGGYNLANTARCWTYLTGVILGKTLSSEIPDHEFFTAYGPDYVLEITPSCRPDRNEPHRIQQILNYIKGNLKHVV

[2] = target: Protein cereblon/Histone deacetylase 8 (Homo sapiens) (UniProt Q9BY41+Q96SW2); assay: PROTAC activity at HDAC8/CRBN in human HCT-116 cells assessed as degradation of HDAC8 at 5 uM by Western blot analysis
[3] = target: T1, Histone deacetylase 8 (Homo sapiens); assay: Induction of HDAC8 degradation in human HCT-116 cells assessed as maximum degradation at 0.1 to 160 uM measured after 10 hrs by Western blot analysis relative to control; settings: dose 0.1-160 µM
[4] = target: T2, Histone deacetylase 8 (Homo sapiens, UniProt Q9BY41); assay: Induction of HDAC8 degradation in human HCT-116 cells measured after 10 hrs by Western blot analysis
T2 sequence (Q9BY41 whole entry): T1 sequence (whole entry)

Protein cereblon/Histone deacetylase 8 (Homo sapiens), sequence (Q96SW2 whole entry, looked up, one chain of several): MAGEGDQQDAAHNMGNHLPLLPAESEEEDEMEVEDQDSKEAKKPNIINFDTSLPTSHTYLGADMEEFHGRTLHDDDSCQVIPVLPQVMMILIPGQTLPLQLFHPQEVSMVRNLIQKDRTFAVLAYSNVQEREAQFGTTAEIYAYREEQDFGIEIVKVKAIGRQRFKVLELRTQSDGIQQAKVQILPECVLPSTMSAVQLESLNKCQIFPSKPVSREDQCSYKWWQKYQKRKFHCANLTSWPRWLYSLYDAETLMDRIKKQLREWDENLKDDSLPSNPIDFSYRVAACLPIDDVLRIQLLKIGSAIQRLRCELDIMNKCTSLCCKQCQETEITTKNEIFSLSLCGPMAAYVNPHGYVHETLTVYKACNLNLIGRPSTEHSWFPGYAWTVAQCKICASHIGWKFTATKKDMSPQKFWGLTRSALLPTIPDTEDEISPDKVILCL

SMILES	Activity [1]	also measured
O=C1CCC(N2C(=O)c3cccc(N4CC(N5CCN(C(=O)CCCCOc6ccc(CCNC(=O)c7cccc(C(=O)NO)c7)cc6)CC5)C4)c3C2=O)C(=O)N1 (configuration not stated)	59.6%	–
O=C1CCC(N2C(=O)c3cccc(N4CCN(C5CCN(C(=O)CCCCOc6ccc(CCNC(=O)c7cccc(C(=O)NO)c7)cc6)CC5)CC4)c3C2=O)C(=O)N1 (configuration not stated)	43.2%	–
O=C(CCCCCOc1ccc(CCNC(=O)c2cccc(C(=O)NO)c2)cc1)NCCCCNc1cccc2c1C(=O)N(C1CCC(=O)NC1=O)C2=O (configuration not stated)	24.4%	–
O=C1CCC(N2C(=O)c3cccc(N4CCC(CN5CCN(C(=O)CCCCOc6ccc(CCNC(=O)c7cccc(C(=O)NO)c7)cc6)CC5)CC4)c3C2=O)C(=O)N1 (configuration not stated)	48.3%	–
O=C(CCCCCCOc1ccc(CCNC(=O)c2cccc(C(=O)NO)c2)cc1)NCCCNc1cccc2c1C(=O)N(C1CCC(=O)NC1=O)C2=O (configuration not stated)	30.5%	–
O=C(NO)c1cccc(C(=O)NCCc2ccccc2)c1	-22%	–
O=C(COc1ccc(CCNC(=O)c2cccc(C(=O)NO)c2)cc1)NCCNc1cccc2c1C(=O)N(C1CCC(=O)NC1=O)C2=O (configuration not stated)	25.8%	–
O=C(COc1ccc(CCNC(=O)c2cccc(C(=O)NO)c2)cc1)NCCCCNc1cccc2c1C(=O)N(C1CCC(=O)NC1=O)C2=O (configuration not stated)	43.6%	–
O=C(CCCOc1ccc(CCNC(=O)c2cccc(C(=O)NO)c2)cc1)NCCCCCNc1cccc2c1C(=O)N(C1CCC(=O)NC1=O)C2=O (configuration not stated)	33.4%	–
O=C(COc1ccc(CCNC(=O)c2cccc(C(=O)NO)c2)cc1)NCCCCCNc1cccc2c1C(=O)N(C1CCC(=O)NC1=O)C2=O (configuration not stated)	10.7%	–
O=C(CCCOc1ccc(CCNC(=O)c2cccc(C(=O)NO)c2)cc1)NCCNc1cccc2c1C(=O)N(C1CCC(=O)NC1=O)C2=O (configuration not stated)	44.3%	–
CN1C(=O)CCC(N2C(=O)c3cccc(NCCCCCCNC(=O)CCCCOc4ccc(CCNC(=O)c5cccc(C(=O)NO)c5)cc4)c3C2=O)C1=O (configuration not stated)	–	Activity [2]: inactive
O=C1CCC(N2C(=O)c3cccc(N4CCC(N5CCN(C(=O)CCCCOc6ccc(CCNC(=O)c7cccc(C(=O)NO)c7)cc6)CC5)CC4)c3C2=O)C(=O)N1 (configuration not stated)	74.4%	Emax [3]: 91%; DC50 [4]: 876 nM
O=C(CCCCCCOc1ccc(CCNC(=O)c2cccc(C(=O)NO)c2)cc1)NCCNc1cccc2c1C(=O)N(C1CCC(=O)NC1=O)C2=O (configuration not stated)	65.2%	–
O=C(CCCCOc1ccc(CCNC(=O)c2cccc(C(=O)NOC3CCCCO3)c2)cc1)NCCCCCCNc1cccc2c1C(=O)N(C1CCC(=O)NC1=O)C2=O (configuration not stated)	–	Activity [2]: inactive
O=C(CCCCCCOc1ccc(CCNC(=O)c2cccc(C(=O)NO)c2)cc1)NCCCCNc1cccc2c1C(=O)N(C1CCC(=O)NC1=O)C2=O (configuration not stated)	19.8%	–
O=C(CCCCCCOc1ccc(CCNC(=O)c2cccc(C(=O)NO)c2)cc1)NCCCCCNc1cccc2c1C(=O)N(C1CCC(=O)NC1=O)C2=O (configuration not stated)	23.7%	–

More lines, main results first:

Activity [1]	SMILES	also measured
45.2%	O=C(CCCCCOc1ccc(CCNC(=O)c2cccc(C(=O)NO)c2)cc1)NCCCCCCNc1cccc2c1C(=O)N(C1CCC(=O)NC1=O)C2=O (configuration not stated)	–
72.9%	O=C(CCCCCOc1ccc(CCNC(=O)c2cccc(C(=O)NO)c2)cc1)NCCNc1cccc2c1C(=O)N(C1CCC(=O)NC1=O)C2=O (configuration not stated)	–
51.7%	O=C(CCCCCOc1ccc(CCNC(=O)c2cccc(C(=O)NO)c2)cc1)NCCCCCNc1cccc2c1C(=O)N(C1CCC(=O)NC1=O)C2=O (configuration not stated)	–
56.3%	O=C1CCC(N2C(=O)c3cccc(N4CC(CN5CCN(C(=O)CCCCOc6ccc(CCNC(=O)c7cccc(C(=O)NO)c7)cc6)CC5)C4)c3C2=O)C(=O)N1 (configuration not stated)	–
20.8%	O=C(CCCOc1ccc(CCNC(=O)c2cccc(C(=O)NO)c2)cc1)NCCCCNc1cccc2c1C(=O)N(C1CCC(=O)NC1=O)C2=O (configuration not stated)	–
21.2%	O=C(CCCOc1ccc(CCNC(=O)c2cccc(C(=O)NO)c2)cc1)NCCCNc1cccc2c1C(=O)N(C1CCC(=O)NC1=O)C2=O (configuration not stated)	–
49.6%	O=C(CCCOc1ccc(CCNC(=O)c2cccc(C(=O)NO)c2)cc1)NCCCCCCNc1cccc2c1C(=O)N(C1CCC(=O)NC1=O)C2=O (configuration not stated)	–
43.6%	O=C1CCC(N2C(=O)c3cccc(N4CCN(CC5CCN(C(=O)CCCCOc6ccc(CCNC(=O)c7cccc(C(=O)NO)c7)cc6)CC5)CC4)c3C2=O)C(=O)N1 (configuration not stated)	–
32%	O=C(COc1ccc(CCNC(=O)c2cccc(C(=O)NO)c2)cc1)NCCCNc1cccc2c1C(=O)N(C1CCC(=O)NC1=O)C2=O (configuration not stated)	–
25.6%	O=C(CCCCCCOc1ccc(CCNC(=O)c2cccc(C(=O)NO)c2)cc1)NCCCCCCNc1cccc2c1C(=O)N(C1CCC(=O)NC1=O)C2=O (configuration not stated)	–
39.5%	O=C1CCC(N2C(=O)c3cccc(N4CCN(C5CN(C(=O)CCCCOc6ccc(CCNC(=O)c7cccc(C(=O)NO)c7)cc6)C5)CC4)c3C2=O)C(=O)N1 (configuration not stated)	–
53%	O=C(CCCCOc1ccc(CCNC(=O)c2cccc(C(=O)NO)c2)cc1)NCCCCNc1cccc2c1C(=O)N(C1CCC(=O)NC1=O)C2=O (configuration not stated)	–
52.5%	O=C(CCCCOc1ccc(CCNC(=O)c2cccc(C(=O)NO)c2)cc1)NCCNc1cccc2c1C(=O)N(C1CCC(=O)NC1=O)C2=O (configuration not stated)	–
25.8%	O=C(CCCCOc1ccc(CCNC(=O)c2cccc(C(=O)NO)c2)cc1)NCCCNc1cccc2c1C(=O)N(C1CCC(=O)NC1=O)C2=O (configuration not stated)	–
-11%	Nc1cccc2c1C(=O)N(C1CCC(=O)NC1=O)C2=O (configuration not stated)	–
72.9%	O=C(CCCCOc1ccc(CCNC(=O)c2cccc(C(=O)NO)c2)cc1)NCCCCCNc1cccc2c1C(=O)N(C1CCC(=O)NC1=O)C2=O (configuration not stated)	–
6.54%	O=C1CCC(N2C(=O)c3cccc(N4CCN(CC5CN(C(=O)CCCCOc6ccc(CCNC(=O)c7cccc(C(=O)NO)c7)cc6)C5)CC4)c3C2=O)C(=O)N1 (configuration not stated)	–
57.9%	O=C1CCC(N2C(=O)c3cccc(N4CCN(C(=O)CCCCOc5ccc(CCNC(=O)c6cccc(C(=O)NO)c6)cc5)CC4)c3C2=O)C(=O)N1 (configuration not stated)	–
54.5%	O=C(COc1ccc(CCNC(=O)c2cccc(C(=O)NO)c2)cc1)NCCCCCCNc1cccc2c1C(=O)N(C1CCC(=O)NC1=O)C2=O (configuration not stated)	–
16.9%	O=C(CCCCCOc1ccc(CCNC(=O)c2cccc(C(=O)NO)c2)cc1)NCCCNc1cccc2c1C(=O)N(C1CCC(=O)NC1=O)C2=O (configuration not stated)	–
68.9%	O=C(CCCCOc1ccc(CCNC(=O)c2cccc(C(=O)NO)c2)cc1)NCCCCCCNc1ccc2c(c1)C(=O)N(C1CCC(=O)NC1=O)C2=O (configuration not stated)	Emax [3]: 77%; DC50 [4]: 441 nM
